According to ChEMBL document CHEMBL1201862, “PubChem BioAssay data set” (2004):
Calls of active or inactive are those of the source.

How the values were obtained:
cells = type: functional
[1] = inhibition of ARNT PAS-B/TACC3 complex formation – biochemical, AlphaScreen, cherry-picked samples, confirmation (AID 651703); type: functional, Homo sapiens;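 also: His-tagged ARNT PAS-B domain paired with GST-TACC3 E629A dimer coactivator fragment; potency of inhibitors that break up the complex and lower AlphaScreen signal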
[2] = blockers of CRF-binding protein–CRF-R2 complex – cell-based, uHTS hits, 384-well, dose response (AID 651639); type: functional, Homo sapiens; details: read-out: IC50_Mean
[3] = target: T1, Corticotropin-releasing factor receptor 2/Corticotropin-releasing factor-binding protein (Homo sapiens, UniProt P24387+Q13324); assay: Dose Response confirmation of uHTS hits for small molecule antagonists of the CRF-binding protein and CRF-R2 receptor complex.; type: functional; details: read-out: IC50_Mean
T1 sequence (Q13324 whole entry): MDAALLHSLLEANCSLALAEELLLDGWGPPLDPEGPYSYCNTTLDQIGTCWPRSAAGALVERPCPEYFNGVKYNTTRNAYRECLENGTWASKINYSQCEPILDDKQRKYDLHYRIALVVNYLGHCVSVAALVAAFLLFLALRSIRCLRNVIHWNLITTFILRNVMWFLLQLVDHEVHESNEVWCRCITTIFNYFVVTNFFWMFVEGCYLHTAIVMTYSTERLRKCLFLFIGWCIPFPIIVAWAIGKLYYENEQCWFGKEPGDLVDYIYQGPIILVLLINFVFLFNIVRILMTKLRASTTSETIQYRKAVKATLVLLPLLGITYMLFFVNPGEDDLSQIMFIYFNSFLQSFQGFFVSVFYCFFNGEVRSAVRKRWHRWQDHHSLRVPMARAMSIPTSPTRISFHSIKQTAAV
T1 sequence (P24387 whole entry): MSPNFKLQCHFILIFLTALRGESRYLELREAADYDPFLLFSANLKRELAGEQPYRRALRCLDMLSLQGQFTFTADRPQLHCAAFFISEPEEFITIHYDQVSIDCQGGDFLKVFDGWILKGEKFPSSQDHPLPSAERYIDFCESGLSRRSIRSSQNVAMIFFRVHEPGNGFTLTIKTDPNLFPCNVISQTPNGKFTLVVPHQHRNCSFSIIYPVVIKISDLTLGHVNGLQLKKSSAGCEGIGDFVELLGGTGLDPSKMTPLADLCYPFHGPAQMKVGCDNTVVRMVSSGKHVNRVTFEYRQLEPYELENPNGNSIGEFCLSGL

[4] = target: T1, Corticotropin-releasing factor receptor 2/Corticotropin-releasing factor-binding protein; assay: activators of CRF receptor 2 with binding protein – uHTS hits, confirmation (AID 602473); type: functional; details: read-out: EC50_Mean
[5] = target: Long-chain-fatty-acid--AMP ligase FadD28 (Mycobacterium tuberculosis, UniProt P9WQ59); assay: Fluorescence polarization aasay to screen for inhibitors that compete for the binding of FadD28 to a bisubstrate Measured in Biochemical System Using Plate Reader - 2147-01_Inhibitor_Dose_CherryPick_Activity.; type: functional, Mycobacterium tuberculosis H37Rv
[6] = target: T2, Endoribonuclease toxin MazF (Escherichia coli K-12, UniProt P0AE70); assay: substrate-only fluorescence increase artefacts – biochemical, single-stranded RNase substrate, counter-screen for MazEF activator project, dose response (AID 588502); type: functional
T2 sequence (P0AE70 whole entry): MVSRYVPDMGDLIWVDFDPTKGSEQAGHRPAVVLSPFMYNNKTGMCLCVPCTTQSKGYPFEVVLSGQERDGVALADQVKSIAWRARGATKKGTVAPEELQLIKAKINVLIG

[7] = target: T2, Endoribonuclease toxin MazF; assay: activation of MazEF endoribonuclease cleavage – biochemical, fluorescence, single-stranded RNA substrate, uHTS hits, dose response (AID 588481); type: functional
Cytochrome P450 2C9 = Cytochrome P450 2C9 (Homo sapiens, UniProt P11712)
Cytochrome P450 3A4 = Cytochrome P450 3A4 (Homo sapiens, UniProt P08684);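 also: CYP3A4 tested as one member of a cytochrome P450 panel screen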
[8] = target: T3, Apoptotic protease-activating factor 1 (Homo sapiens, UniProt O14727); type: functional
T3 sequence (O14727 whole entry): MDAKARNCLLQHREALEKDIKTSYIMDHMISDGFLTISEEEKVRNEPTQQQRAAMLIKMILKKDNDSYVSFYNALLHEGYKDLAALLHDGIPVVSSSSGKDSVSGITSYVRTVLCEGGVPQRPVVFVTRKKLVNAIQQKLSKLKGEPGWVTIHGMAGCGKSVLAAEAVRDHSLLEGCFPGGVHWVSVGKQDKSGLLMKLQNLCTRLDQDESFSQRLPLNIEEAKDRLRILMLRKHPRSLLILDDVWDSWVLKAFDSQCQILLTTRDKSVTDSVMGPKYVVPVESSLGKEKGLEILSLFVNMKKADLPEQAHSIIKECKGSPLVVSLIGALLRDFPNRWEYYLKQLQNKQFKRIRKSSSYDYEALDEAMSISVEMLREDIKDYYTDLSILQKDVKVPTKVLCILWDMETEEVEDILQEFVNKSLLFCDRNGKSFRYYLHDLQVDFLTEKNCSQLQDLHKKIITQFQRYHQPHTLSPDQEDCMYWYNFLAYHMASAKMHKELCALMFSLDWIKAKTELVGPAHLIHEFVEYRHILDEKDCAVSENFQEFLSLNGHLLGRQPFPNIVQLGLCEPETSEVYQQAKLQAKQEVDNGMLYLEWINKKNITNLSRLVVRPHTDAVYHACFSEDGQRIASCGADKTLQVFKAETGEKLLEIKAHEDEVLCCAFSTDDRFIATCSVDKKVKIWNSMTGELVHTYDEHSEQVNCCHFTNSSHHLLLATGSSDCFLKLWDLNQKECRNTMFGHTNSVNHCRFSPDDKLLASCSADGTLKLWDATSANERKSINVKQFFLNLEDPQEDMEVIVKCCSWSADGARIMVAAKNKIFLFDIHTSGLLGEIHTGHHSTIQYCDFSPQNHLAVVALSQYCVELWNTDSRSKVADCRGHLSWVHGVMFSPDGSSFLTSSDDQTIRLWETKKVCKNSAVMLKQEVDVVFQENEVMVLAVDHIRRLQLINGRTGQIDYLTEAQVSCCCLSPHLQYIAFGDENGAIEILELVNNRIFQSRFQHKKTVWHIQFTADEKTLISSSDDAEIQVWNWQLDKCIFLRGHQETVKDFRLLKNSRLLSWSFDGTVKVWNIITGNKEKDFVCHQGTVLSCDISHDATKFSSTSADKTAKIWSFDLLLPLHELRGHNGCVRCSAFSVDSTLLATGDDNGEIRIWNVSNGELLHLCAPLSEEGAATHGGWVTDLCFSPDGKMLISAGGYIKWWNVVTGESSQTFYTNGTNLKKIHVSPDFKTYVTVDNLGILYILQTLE

Genome polyprotein = Genome polyprotein (dengue virus type 2, UniProt P29990); assay: flavivirus cap methylation enzyme inhibition – biochemical, confirmation dose response, primary screen (AID 588689); type: functional
Vero = assay: viability of Vero cells under compound – cytotoxicity control for flavivirus capping enzyme inhibitors (AID 588742); type: functional; details: Chlorocebus sabaeus
[9] = activation of miR-122 Renilla sensor silencing – cell-based, Huh7 psiCHECK-miR122, Renilla luciferase, cherry-picked, dose response (AID 651956); type: functional;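 also: huh7 hepatoma cells stably carrying a psiCHECK-2 miR-122 sensor plasmid; renilla luciferase signal reporting endogenous miR-122 activity after 48 h compound exposure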
[10] = target: Glucose-6-phosphate 1-dehydrogenase (Homo sapiens, UniProt P11413); assay: inhibition of Homo sapiens G6PD, dose series – biochemical, fluorescence, selectivity assay for P. falciparum G6PD inhibitor project, dose response (AID 504792); type: functional
Trypsin = Trypsin (Sus scrofa, UniProt P00761); assay: trypsin protease activity blockade – biochemical, quenched peptide fluorescence, cherry-pick, selectivity assay for Rce1 protease inhibitor project, dose response (AID 488789)
CAAX prenyl protease 2 [11] = target: T4, CAAX prenyl protease 2 (Saccharomyces cerevisiae S288c, UniProt Q03530); type: biochemical
T4 sequence (Q03530 whole entry): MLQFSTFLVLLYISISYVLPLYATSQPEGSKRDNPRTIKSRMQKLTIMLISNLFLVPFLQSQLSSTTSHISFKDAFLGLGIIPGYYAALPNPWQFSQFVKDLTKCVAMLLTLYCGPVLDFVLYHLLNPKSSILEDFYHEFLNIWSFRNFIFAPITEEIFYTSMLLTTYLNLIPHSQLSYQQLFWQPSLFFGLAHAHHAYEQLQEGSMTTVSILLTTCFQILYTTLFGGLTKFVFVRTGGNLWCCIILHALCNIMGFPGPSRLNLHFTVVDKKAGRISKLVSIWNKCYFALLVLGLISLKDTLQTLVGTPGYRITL

[12] = target: DNA repair and recombination protein RAD54-like (Homo sapiens, UniProt Q92698); assay: RAD54 Holliday junction migration blockers – biochemical, fluorescence, cherry-picked samples, dose series, confirmation (AID 651657); type: functional
CAAX prenyl protease 2 [13] = target: T5, CAAX prenyl protease 2 (Homo sapiens, UniProt Q9Y256); assay: inhibition of Ras-converting CAAX protease Rce1 – biochemical, yeast membranes, quenched-peptide fluorescence, cherry-pick, dose response (AID 588849)
T5 sequence (Q9Y256 whole entry): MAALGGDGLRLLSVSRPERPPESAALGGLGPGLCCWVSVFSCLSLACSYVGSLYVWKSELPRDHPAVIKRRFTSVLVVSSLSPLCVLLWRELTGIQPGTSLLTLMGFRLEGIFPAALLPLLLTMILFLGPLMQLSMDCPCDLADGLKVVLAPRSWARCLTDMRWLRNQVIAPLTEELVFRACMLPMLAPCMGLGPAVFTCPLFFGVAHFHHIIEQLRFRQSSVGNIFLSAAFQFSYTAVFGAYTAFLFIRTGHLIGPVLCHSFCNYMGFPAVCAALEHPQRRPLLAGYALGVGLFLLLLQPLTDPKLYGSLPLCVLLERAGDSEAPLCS

[14] = target: T6, Short transient receptor potential channel 4 (Mus musculus, UniProt Q9QUQ5); assay: calcium entry via TRPC4 opening agents – cell-based, HEK293 TRPC4/mu-opioid, Fluo-4 calcium, dose response (AID 434937); type: functional
T6 sequence (Q9QUQ5 whole entry): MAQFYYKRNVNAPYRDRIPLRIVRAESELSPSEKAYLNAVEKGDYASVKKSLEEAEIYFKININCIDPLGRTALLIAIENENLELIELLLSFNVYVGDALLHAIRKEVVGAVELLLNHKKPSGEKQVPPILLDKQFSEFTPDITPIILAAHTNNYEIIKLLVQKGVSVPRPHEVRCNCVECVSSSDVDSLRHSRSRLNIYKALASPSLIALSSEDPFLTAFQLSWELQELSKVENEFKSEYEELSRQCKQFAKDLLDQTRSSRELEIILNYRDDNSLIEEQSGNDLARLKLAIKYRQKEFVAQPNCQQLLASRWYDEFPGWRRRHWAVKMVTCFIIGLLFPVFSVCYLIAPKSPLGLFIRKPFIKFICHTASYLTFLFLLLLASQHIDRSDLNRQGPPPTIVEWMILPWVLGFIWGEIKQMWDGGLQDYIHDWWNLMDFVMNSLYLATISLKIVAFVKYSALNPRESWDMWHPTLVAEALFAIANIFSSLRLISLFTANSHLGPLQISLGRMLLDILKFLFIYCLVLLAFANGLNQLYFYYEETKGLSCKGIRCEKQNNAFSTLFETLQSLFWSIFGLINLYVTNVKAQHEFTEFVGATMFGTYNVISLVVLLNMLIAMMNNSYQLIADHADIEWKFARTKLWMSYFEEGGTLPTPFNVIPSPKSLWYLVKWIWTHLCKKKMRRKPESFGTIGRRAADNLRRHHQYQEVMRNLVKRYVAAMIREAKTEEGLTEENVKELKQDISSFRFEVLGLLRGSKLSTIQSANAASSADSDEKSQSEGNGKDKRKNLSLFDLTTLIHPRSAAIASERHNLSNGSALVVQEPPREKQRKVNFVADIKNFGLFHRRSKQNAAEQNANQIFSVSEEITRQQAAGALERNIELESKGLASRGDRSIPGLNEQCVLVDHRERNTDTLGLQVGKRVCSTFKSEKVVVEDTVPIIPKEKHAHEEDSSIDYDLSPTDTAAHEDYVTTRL

[15] = target: T7, DNA repair protein RAD52 homolog (Homo sapiens, UniProt P43351); type: functional, biochemical
T7 sequence (P43351 whole entry): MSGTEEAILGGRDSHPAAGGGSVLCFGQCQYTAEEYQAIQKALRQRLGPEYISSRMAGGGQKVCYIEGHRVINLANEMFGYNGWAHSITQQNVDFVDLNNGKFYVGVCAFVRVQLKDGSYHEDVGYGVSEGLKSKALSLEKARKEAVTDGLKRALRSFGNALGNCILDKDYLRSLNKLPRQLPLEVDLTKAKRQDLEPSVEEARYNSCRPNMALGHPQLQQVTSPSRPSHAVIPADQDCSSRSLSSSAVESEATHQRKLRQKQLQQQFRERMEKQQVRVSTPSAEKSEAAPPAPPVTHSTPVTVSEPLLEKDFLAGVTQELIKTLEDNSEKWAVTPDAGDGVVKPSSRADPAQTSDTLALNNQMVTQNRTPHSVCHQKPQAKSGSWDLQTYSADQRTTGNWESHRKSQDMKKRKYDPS

Chain of DNA repair and recombination protein RAD54-like (Q92698 whole entry): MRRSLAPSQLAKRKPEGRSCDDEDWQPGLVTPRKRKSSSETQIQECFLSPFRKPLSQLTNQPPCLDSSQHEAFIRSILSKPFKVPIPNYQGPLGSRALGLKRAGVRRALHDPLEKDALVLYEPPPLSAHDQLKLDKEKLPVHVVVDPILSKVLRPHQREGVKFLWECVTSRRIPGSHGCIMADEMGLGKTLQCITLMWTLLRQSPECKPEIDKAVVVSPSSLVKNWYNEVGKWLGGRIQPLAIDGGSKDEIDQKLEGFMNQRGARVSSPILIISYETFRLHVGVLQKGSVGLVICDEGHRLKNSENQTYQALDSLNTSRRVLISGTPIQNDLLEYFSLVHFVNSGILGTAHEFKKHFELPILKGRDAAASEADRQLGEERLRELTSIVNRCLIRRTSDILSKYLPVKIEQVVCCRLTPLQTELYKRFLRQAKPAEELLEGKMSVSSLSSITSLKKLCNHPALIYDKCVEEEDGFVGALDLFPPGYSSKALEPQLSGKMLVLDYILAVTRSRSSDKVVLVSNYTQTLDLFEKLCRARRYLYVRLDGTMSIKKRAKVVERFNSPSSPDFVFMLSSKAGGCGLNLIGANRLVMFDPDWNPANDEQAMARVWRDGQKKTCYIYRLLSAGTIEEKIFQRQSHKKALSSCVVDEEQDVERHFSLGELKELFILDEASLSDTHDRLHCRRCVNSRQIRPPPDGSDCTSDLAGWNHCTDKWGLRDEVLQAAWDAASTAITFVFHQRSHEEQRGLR
Chain of Long-chain-fatty-acid--AMP ligase FadD28 (P9WQ59 whole entry): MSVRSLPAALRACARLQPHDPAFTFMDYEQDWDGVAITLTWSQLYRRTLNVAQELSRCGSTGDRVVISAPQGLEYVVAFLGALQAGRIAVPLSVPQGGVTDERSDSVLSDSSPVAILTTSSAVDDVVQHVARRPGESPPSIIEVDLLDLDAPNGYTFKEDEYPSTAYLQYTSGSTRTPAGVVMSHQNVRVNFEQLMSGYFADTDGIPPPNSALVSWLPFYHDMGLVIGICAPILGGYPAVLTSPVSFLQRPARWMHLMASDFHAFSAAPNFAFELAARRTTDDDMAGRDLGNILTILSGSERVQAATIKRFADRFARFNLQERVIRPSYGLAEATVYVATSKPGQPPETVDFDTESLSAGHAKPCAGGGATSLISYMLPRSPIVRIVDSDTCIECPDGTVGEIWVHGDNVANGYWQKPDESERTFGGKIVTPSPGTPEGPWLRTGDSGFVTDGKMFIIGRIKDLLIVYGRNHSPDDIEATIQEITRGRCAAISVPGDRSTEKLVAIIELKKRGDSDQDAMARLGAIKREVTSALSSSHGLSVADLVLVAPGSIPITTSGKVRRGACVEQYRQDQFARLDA
Chain of Trypsin (P00761 whole entry): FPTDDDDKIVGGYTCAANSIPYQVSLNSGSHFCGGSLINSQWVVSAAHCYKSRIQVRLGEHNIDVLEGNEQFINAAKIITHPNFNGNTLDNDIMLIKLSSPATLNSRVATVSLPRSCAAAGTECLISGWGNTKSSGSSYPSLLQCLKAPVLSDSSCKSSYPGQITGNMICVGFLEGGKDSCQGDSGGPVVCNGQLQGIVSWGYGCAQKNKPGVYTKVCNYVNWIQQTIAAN
Chain of Genome polyprotein (P29990 2492-3391 limits assumed): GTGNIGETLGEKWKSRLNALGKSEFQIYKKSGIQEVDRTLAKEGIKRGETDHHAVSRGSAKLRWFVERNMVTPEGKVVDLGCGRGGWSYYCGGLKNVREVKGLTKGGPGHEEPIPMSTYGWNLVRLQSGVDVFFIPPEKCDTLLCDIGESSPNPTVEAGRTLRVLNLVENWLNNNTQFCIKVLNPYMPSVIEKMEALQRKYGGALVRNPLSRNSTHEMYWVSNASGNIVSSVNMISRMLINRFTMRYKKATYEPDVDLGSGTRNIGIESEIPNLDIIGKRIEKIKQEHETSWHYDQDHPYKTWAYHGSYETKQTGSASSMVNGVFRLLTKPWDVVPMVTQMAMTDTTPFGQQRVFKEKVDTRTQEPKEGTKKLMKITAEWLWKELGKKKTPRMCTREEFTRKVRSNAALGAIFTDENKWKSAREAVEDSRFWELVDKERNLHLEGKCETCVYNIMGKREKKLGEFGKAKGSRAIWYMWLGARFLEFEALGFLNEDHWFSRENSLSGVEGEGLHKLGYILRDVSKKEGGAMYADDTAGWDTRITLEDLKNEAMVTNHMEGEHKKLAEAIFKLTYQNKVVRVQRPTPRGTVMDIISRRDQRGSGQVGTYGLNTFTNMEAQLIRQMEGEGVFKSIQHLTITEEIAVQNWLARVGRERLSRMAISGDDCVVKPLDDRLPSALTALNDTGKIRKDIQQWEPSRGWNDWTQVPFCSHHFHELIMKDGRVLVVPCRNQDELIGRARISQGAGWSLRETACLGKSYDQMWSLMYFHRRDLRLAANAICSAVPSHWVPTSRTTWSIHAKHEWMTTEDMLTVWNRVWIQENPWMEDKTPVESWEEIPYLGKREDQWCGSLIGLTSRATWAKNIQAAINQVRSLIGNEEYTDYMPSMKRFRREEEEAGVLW
Chain of Cytochrome P450 3A4 (P08684 whole entry): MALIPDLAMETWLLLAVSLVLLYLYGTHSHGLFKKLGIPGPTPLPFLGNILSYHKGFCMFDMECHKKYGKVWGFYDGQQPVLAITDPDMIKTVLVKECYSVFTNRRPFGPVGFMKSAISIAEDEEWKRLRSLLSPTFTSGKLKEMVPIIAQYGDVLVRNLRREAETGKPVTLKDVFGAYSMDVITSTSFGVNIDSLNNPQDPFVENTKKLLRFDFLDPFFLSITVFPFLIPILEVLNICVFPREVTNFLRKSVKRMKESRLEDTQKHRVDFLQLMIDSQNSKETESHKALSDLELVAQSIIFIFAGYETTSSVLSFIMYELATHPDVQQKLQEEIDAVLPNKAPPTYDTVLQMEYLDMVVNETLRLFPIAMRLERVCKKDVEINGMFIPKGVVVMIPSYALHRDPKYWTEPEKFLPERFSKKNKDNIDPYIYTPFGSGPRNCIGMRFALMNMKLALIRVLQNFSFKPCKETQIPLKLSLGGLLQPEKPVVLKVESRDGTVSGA
Chain of Glucose-6-phosphate 1-dehydrogenase (P11413 whole entry): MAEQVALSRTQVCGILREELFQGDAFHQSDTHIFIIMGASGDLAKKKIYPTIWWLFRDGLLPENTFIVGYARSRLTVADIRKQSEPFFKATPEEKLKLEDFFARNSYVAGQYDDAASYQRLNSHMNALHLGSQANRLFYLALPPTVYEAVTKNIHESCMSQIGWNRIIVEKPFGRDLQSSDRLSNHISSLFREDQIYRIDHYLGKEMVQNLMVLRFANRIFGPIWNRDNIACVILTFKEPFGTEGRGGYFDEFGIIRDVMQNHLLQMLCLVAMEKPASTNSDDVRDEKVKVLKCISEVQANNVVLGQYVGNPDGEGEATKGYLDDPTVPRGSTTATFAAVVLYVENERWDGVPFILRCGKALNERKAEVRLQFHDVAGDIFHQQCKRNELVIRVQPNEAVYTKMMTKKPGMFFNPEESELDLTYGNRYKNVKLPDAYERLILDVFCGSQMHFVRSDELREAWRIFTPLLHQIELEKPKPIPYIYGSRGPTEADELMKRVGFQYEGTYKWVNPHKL
Chain of Cytochrome P450 2C9 (P11712 whole entry): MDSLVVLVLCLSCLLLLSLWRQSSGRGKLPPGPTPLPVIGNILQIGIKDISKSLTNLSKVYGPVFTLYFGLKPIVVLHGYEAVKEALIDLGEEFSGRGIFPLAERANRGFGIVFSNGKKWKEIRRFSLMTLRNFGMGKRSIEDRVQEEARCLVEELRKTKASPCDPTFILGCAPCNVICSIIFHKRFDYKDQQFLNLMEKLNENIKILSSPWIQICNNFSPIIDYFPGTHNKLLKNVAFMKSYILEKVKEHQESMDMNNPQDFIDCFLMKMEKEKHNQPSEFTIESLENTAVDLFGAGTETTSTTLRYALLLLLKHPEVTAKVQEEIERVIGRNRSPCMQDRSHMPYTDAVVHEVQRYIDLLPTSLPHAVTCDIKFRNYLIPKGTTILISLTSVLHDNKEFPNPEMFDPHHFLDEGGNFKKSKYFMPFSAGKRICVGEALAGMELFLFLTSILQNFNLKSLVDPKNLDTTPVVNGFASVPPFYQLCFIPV

## COCCn1c(C)cc(C(=O)COC(=O)c2ccc([N+](=O)[O-])o2)c1C
cells
  IC50: < 0.1 µM (active)
[1]
  AC50: 117 µM (active)

## COc1ccc(C2CCCN2C(=O)Nc2ccc(C)c(C)c2)cc1OC (configuration not stated)
[2]
  IC50: > 20 µM (inactive)
[3]
  IC50: 42.4 µM (active)
[4]
  EC50: > 53 µM (inactive)

## CC1=Nc2ccccc2/C1=C\c1nc(-c2ccc(C(F)(F)F)cc2)oc1O
[5]
  AC50: > 100 µM (inactive)
[6]
  EC50: > 99 µM (inactive)
[4]
  EC50: 10.2 µM (active)
[7]
  EC50: > 99 µM (inactive)
Cytochrome P450 2C9
  AC50: 12.6 µM (inconclusive)
Cytochrome P450 3A4
  AC50: 28.2 µM (inconclusive)

## Cc1coc2c1C(=O)C(=O)c1c-2ccc2c1CCCC2(C)C [TANSHINONE IIA]
[5]
  AC50: 88.9 µM (active)
[8]
  IC50: 4.82 µM (active)
Genome polyprotein
  IC50: > 100 µM (active)
Vero
  CC50: 9.09 µM (active)

## COc1ccc(S(=O)(=O)N(C)C[C@@H]2Oc3ncc(/C=C/c4ccccc4)cc3C(=O)N([C@@H](C)CO)C[C@@H]2C)cc1
[9]
  AC50: 2.03 µM (active)

## COc1ccc(Cl)cc1NC(=O)c1cccc([N+](=O)[O-])c1O
[2]
  IC50: 8.13 µM (active)
[3]
  IC50: 2.55 µM (active)
[4]
  EC50: > 53 µM (inactive)
[10]
  IC50: 46.5 µM (inactive)

## COc1ccc2c(c1)c1ncn(CCN3CCCCC3)c(=O)c1n2C
Trypsin
  AC50: 13.1 µM (active)
CAAX prenyl protease 2 [11]
  AC50: 13.9 µM (active)
[12]
  AC50: 35 µM (active)
CAAX prenyl protease 2 [13]
  AC50: 4.82 µM (active)

## CCCN(CCC)CCCNC(=O)c1cc2c(-c3ccc(OC)c(OC)c3)nn(C)c2s1
[14]
  EC50: 0.531 µM (active)
[12]
  AC50: 9.65 µM (active)
[15]
  AC50: 3.41 µM (active)
